Measured values as given in patent US20100291236A1, “OSMIUM COMPOUNDS” (THE UNIVERSITY OF WARWICK, priority 2006, published 2010).
Where “and” joins values, the source holds several entries; their conditions need not be identical. Equal entries are not always repeated. Entries after “also recorded” stand apart in the source; their conditions may differ. Where two headings read alike, the source gives them in different places.

Legend:
[1] = test system: human ovarian A2780 cancer cells; conditions: Peacock et al, J. Am. Chem. Soc. 2006; said to be erroneous; cited from earlier work
[2] = test system: human ovarian A2780 cancer cells; assay: Cytotoxicity towards A2780 cells, sulforhodamine B (SRB) assay; assay type: cell-based
Protocol: (§1) Experimental: Cytotoxicity Towards A2780 and A549 Human Cancer Cells. After plating, human ovarian A2780 cancer cells were treated with Os^II complexes on day 3, and human lung A549 cancer cells on day 2, at concentrations ranging from 2 μM to 50 μM. Solutions of the Os^II complexes were made up in 0.125% DMSO to assist dissolution. Cells were exposed to the complexes for 24 h, washed, supplied with fresh medium, allowed to grow for three doubling times (72 h), and then the protein content measured (proportional to cell survival) using the sulforhodamine B (SRB) assay.
(§2) Cancer Cell Cytotoxicity. After plating, human ovarian A2780 cancer cells were treated with OsII complexes on day 3, and human lung A549 cancer cells on day 2, at concentrations ranging from 0.1 μM to 100 μM. Solutions of the OsII complexes were made up in 0.125% DMSO to assist dissolution. Cells were exposed to the complexes for 24 h, washed, supplied with fresh medium, allowed to grow for three doubling times (72 h), and then the protein content measured (proportional to cell survival) using the sulforhodamine B (SRB) assay.10

[3] = Stability in isotonic saline solutions; assay type: physicochemical; conditions: after 16 days of storage in the dark
Protocol: Stability tests on AFAP42, 64, 62, 05, 51 and 65 in isotonic saline solutions were also performed.

[4] = test system: human lung A549 cancer cells; assay: Cytotoxicity towards A549 cells, sulforhodamine B (SRB) assay; assay type: cell-based
Protocol: as §1, §2

[5] = test system: A549 human lung and A2780 human ovarian cancer cell lines; assay: Cytotoxicity in A549 and A2780 cell lines, result not split by cell line; assay type: cell-based
Protocol: as §1, §2

[6] = Acidity (pKa / pKa*) of coordinated water, 1H NMR pH* titration
Description: pKa* calculations. […] The chemical shifts of the arene ring protons were plotted against pH*. The pH* titration curves were fitted to the Henderson-Hasselbalch equation, with the assumption that the observed chemical shifts are weighted averages according to the populations of the protonated and deprotonated species.

[7] = Stability against formation of hydroxo-bridged dimers; assay type: physicochemical; conditions: for Formation of inert hydroxo-bridged dimers: micromolar concentrations; for Stability with no evidence of dimer formation: 50 μM, even after incubation at 310 K (24 h)
Description: Complexes containing O,O-chelated ligands are deactivated at micromolar concentrations by loss of the chelate and formation of inert hydroxo-bridged dimers.

[8] = extreme conditions of heating, sonicating, exposure to air and extreme sunlight
Protocol: Samples are prepared for testing by initially dissolving in 5% DMSO and subsequently diluting down.

[9] = Effect of chloride concentration on aqua adduct formation; assay type: physicochemical; conditions: for % aqua adduct: 1 mM complex in D2O, t = 10 min; for % of aqua complex formed: 1 mM complex
Description: The effects of chloride levels on the distribution of AFAP42 (“prodrug”) and its aqua analogue (“active species”) were investigated. […] Results are summarised in table 6, showing how the hydrolysis of AFAP42 is suppressed in solutions with chloride concentrations similar to those found in blood plasma. At chloride concentrations typical of the cells cytoplasm, complex AFAP42 hydrolyses to some extent and at chloride concentrations typical of the nucleus (where the proposed target, DNA, can be found), the complex is present predominantly as the “active species” the aqua complex.
The effects of chloride concentrations typical of blood plasma (100 mM), cell cytoplasm (22.7 mM) and cell nucleus (4 mM) on the aqueous chemistry of 3 and 6 were investigated. ^1H NMR spectra of 3 or 6 (1 mM) were recorded within 10 min of sample preparation and after incubation at 310 K for 24 h.

[10] = as above; assay type: physicochemical; conditions: for % aqua adduct: 1 mM complex in D2O, t = 26 h
[11] = Hydrolysis (aquation) kinetics followed by 1H NMR; assay type: physicochemical; conditions: for Hydrolysis k/h^−1: 5% MeOD-d4/95% D2O, pH* 2
Protocol: Hydrolysis. […] The rate of hydrolysis was determined by fitting plots of concentrations (determined by ^1H NMR peak integrals) versus time to a pseudo first-order equation using ORIGIN version 5.0 (Microcal Software Ltd.).

9-ethyl guanine (9EtG) = assay: Reaction with nucleobase model 9-ethyl guanine, 1H NMR; assay type: binding; conditions: 1 mM complex, 1 mol equivalent 9EtG, D2O
Protocol: (§3) Since DNA is believed to be the main target for metal anticancer drugs, nucleobase binding reactions of compounds 3-6, with nucleobase models, 9-ethyl guanine (9EtG) and 9-ethyl adenine (9EtA), were investigated.
(§4) Solutions of 3-6 (1 mM) (present as an equilibrium between 3-6 and their respective aqua adducts as the major species) with 1 mol equivalent of 9EtG (Table 14) or 9EtA (Table 15) in D2O were prepared and ^1H NMR spectra were taken at different time intervals.
(§5) Interactions with Nucleobases. The reaction of compounds 8-12 with nucleobases typically involved addition of a solution containing 1 mol equiv of nucleobase in D2O, to an equilibrium solution of compounds 8-12 in D2O (>90% aqua). The pH* value of the sample was adjusted if necessary so as to remain close to 7.4 (physiological). ^1H NMR spectra of these solutions were recorded at 298 K after various time intervals.

9-ethyl adenine (9EtA) = assay: Reaction with nucleobase model 9-ethyl adenine, 1H NMR; assay type: binding; conditions: 1 mM complex, 1 mol equivalent 9EtA, D2O
Protocol: as §3, §4, §5

[12] = test system: A2780cisR (with acquired cisplatin resistance); conditions: MTT, 72 hours exposure, 0 to 128 μM
Protocol: All experiments were made in quadruplicate.
All experiments were performed in quadruplicate.

[13] = Table 7, 24 h exposure, 72 h growth, 2-50 μM, read-out: IC50/μM A2780
[14] = Table 7, 24 h exposure, 72 h growth, 2-50 μM, read-out: IC50/μM A549

## NCCN.[Cl][Os+].c1ccc(-c2ccccc2)cc1.c1ccc([B-](c2ccccc2)(c2ccccc2)c2ccccc2)cc1 [(III)]
[1]
  Activity toward A2780 cells as previously reported: inactive

## F[P-](F)(F)(F)(F)F.NCCN.[Cl][Os+].c1ccc(-c2ccccc2)cc1 [AFAP05, [(η^6-bip)Os(en)Cl]PF6]
[2]; [13]
  IC50: 7 µM
[3]
  Stability of isotonic saline solutions: stable
[4]; [14]
  IC50: 10 µM

## Cc1ccc(C(C)C)cc1.Cc1ccc2c(c1)[S][Os-]([Cl])[S]2.[Na+] (centres unmarked) [AFAP40, [(η^6-p-cym)Os(S2C7H6)Cl]Na]
Aqueous solubility
  Aqueous solubility: very poor
[5]
  Cytotoxicity, A549 and A2780: showed activity; also recorded: Shows cytotoxicity

## Cc1ccc(C(C)C)cc1.NCC(=O)[O][Os][Cl] [AFAP43]
[6]
  pKa of water coordinated on hydrolysis (aqua adduct of complex): 7.17
[7]
  Formation of inert hydroxo-bridged dimers: form in small amounts
[2]; [13]
  IC50: > 100 µM
[4]; [14]
  IC50: > 100 µM

## CC(N)C(=O)[O][Os][Cl].Cc1ccc(C(C)C)cc1 [AFAP44]
[6]
  pKa of water coordinated on hydrolysis (aqua adduct of complex): 7.05
[7]
  Formation of inert hydroxo-bridged dimers: form in small amounts
[2]; [13]
  IC50: > 100 µM
[4]; [14]
  IC50: > 100 µM

## Cc1ccc(C(C)C)cc1.NCCC(=O)[O][Os][Cl] [AFAP49]
[6]
  pKa of water coordinated on hydrolysis (aqua adduct of complex): 7.43
[7]
  Formation of inert hydroxo-bridged dimers: form in small amounts
[2]; [13]
  IC50: > 100 µM
[4]; [14]
  IC50: > 100 µM

## F[B-](F)(F)F.[Cl][Os-]1[NH2+]CC[NH2+]1.c1ccc(-c2ccccc2)cc1 [AFAP51, [(η^6-bip)Os(en)Cl]BF4]
[6]
  pKa of water coordinated on hydrolysis (aqua adduct of complex): 6.34
[2]; [13]
  IC50: 7.6 µM
[8]
  Stability of solutions in DMSO-d6: can decompose
[3]
  Stability of isotonic saline solutions: stable
[1]
  Activity toward A2780 cells as previously reported: inactive
[4]; [14]
  IC50: 10 µM
[5]
  Cytotoxicity, A549 and A2780: does show cytotoxicity

## CC(C)(N)C(=O)[O][Os][Cl].Cc1ccc(C(C)C)cc1 [AFAP60]
[6]
  pKa of water coordinated on hydrolysis (aqua adduct of complex): 7.08
[7]
  Formation of inert hydroxo-bridged dimers: form in small amounts
[2]; [13]
  IC50: > 100 µM
[4]; [14]
  IC50: > 100 µM

## Cc1ccnc(C(=O)[O][Os][Cl])c1.c1ccc(-c2ccccc2)cc1 [Compound 6, [(η^6-bip)Os(4-Me-pico)Cl]]
[9]; 4 mM NaCl
  % aqua adduct: 82%
[9]; 22.7 mM NaCl
  % aqua adduct: 53%
[9]; 100 mM NaCl
  % aqua adduct: 10%
[6]
  pKa* of the aqua adduct: 6.42
[2]
  Activity in A2780 cancer cell line: toxic
[2]; Table 8, compounds 1-6, read-out: A2780 IC50
  IC50: 4.4 µM
[10]; 4 mM NaCl
  % aqua adduct: 81%
[10]; 22.7 mM NaCl
  % aqua adduct: 53%
[10]; 100 mM NaCl
  % aqua adduct: 20%
[4]; Table 8, compounds 1-6, read-out: A549 IC50
  IC50: 10 to 50 µM
[11]; 278 K
  Aquation k/h^−1: 0.17 h⁻¹
[11]; 285 K
  Aquation k/h^−1: 0.44 h⁻¹
[11]; 288 K
  Hydrolysis k/h^−1: 0.710 ± 0.012 h⁻¹ and 0.71 h⁻¹
[11]; 298 K
  Hydrolysis k/h^−1: 2.32 ± 0.08 h⁻¹ and 2.32 h⁻¹
[11]; from rates at 278-298 K
  Ea of aquation: 21.65 kcal/mol
  ΔH^‡ of aquation: 21 kcal/mol
  ΔS^‡ of aquation: −55.56 J K^−1 mol^−1
9-ethyl guanine (9EtG); t = 10
  % 9EtG nucleobase adduct: 0%
9-ethyl guanine (9EtG); t = 24 h
  % 9EtG nucleobase adduct: 80%
9-ethyl guanine (9EtG); t = 72 h
  % 9EtG nucleobase adduct: 85%
9-ethyl adenine (9EtA); t = 10
  % 9EtA nucleobase adduct: 0%
9-ethyl adenine (9EtA); t = 24 h
  % 9EtA nucleobase adduct: 60%
9-ethyl adenine (9EtA); t = 72 h
  % 9EtA nucleobase adduct: 60%

## [Cl][Os-]1[NH2+]CC[NH2+]1.c1ccc(-c2ccccc2)cc1 [[(η^6-bip)Os(en)Cl]^+]
[12]
  Activity in cisplatin resistant A2780cisR compared with A2780: even greater activity in the cisplatin resistant cell line
[11]; osmium complex versus equivalent ruthenium complex
  Hydrolysis slower than the equivalent ruthenium complex: 40 times

## [(η^6-bip)Os(pico)Cl] [AFAP64]
[6]
  pKa of water coordinated on hydrolysis (aqua adduct of complex): 6.30
[2]; [13]
  IC50: 4.2 µM
[3]
  Stability of isotonic saline solutions: stable
[4]; [14]
  IC50: 8 µM

## [(η^6-p-cym)Os(pico)Cl] [AFAP42]
[9]; 4 mM [Cl], T = 0
  % of aqua complex formed: 56.1% Aqua
[9]; 4 mM [Cl], T = 24 h (310 K)
  % of aqua complex formed: 65.5% Aqua
[9]; 22.7 mM [Cl], T = 0
  % of aqua complex formed: 29.8% Aqua
[9]; 100 mM [Cl], T = 0
  % of aqua complex formed: 12% Aqua
[9]; 100 mM [Cl], T = 24 h (310 K)
  % of aqua complex formed: 12.9% Aqua
[6]
  pKa of water coordinated on hydrolysis (aqua adduct of complex): 6.62
[7]
  Stability with no evidence of dimer formation: 100%
[2]; [13]
  IC50: 4.5 µM
[3]
  Stability of isotonic saline solutions: stable
[10]; 4 mM [Cl], 50 μM complex, T = 0
  % of aqua complex formed: 73.5% Aqua
[10]; 4 mM [Cl], 50 μM complex, T = 24 h (310 K)
  % of aqua complex formed: 72.1% Aqua
[10]; 22.7 mM [Cl], 50 μM complex, T = 0
  % of aqua complex formed: 44.8% Aqua
[10]; 22.7 mM [Cl], 50 μM complex, T = 24 h (310 K)
  % of aqua complex formed: 45.2% Aqua
[10]; 22.7 mM [Cl], 1 mM complex, T = 24 h (310 K)
  % of aqua complex formed: 30.5% Aqua
[10]; 100 mM [Cl], 50 μM complex, T = 0
  % of aqua complex formed: 0% Aqua
[10]; 100 mM [Cl], 50 μM complex, T = 24 h (310 K)
  % of aqua complex formed: 0% Aqua
[4]; [14]
  IC50: 17 µM

## [(η^6-p-cym)Os(quin)Cl] [AFAP62]
[6]
  pKa of water coordinated on hydrolysis (aqua adduct of complex): 7.52
[7]
  Stability with no evidence of dimer formation: 100%
[2]; [13]
  IC50: 15 µM and 15.2 µM
[3]
  Stability of isotonic saline solutions: stable
[4]; [14]
  IC50: 60 µM
